Values quoted from earlier work, collected in patent US11434243B2, “Triazoloquinazolinone synthesis” (priority 2017, dated 2022).

Assays:
[1] = test system: benzodiazepine site of the GABAA receptor complex
[2] = qualitative; complicates purification

In the case of Cc1ccc(-n2nc3c4cc(Cc5ccccc5)ccc4[nH]c(=O)n3c2=O)cc1 [Compound 12, 9-benzyl-2-(4-methylphenyl)-2,6-dihydro[1,2,4]triazolo[4,3-c]quinazoline-3,5-dione], the “potency relative to diazepam in displacing 3H-Flumazenil” value ([1]; fold more potent than diazepam) is given as 10 times, the “inhibition of the binding of 3H-Flumazenil to the benzodiazepine site of the GABAA receptor complex” value ([1]; rat membrane preparations, result in words) is given as “very potent inhibitor” and the “selectivity for the GABAA receptor complex” value ([1]; result in words) is given as “selective for the GABAA receptor complex”. For the same compound, the solubility [2] was “low solubility”.
